Source: patent publication US20260068882A1, “ARTHROPOD CONTROLLING COMPOSITION” (Firmenich SA, priority 2019, published 2026)

What was measured:
Aedes aegypti [1] = assay: In vitro K&D (Klun & Debboun) assay, mosquitoes biting through treated cloth over membrane-blood reservoir; format: in vivo
Procedure: Controlling efficacy was tested against the yellow fever mosquito, A. aegypti Rockefeller strain.
Observations of controlling efficacy were made on host-seeking females of uniform age, 5 to 10 days post-eclosion from pupae. Tested hungry females had access to 10% sugar solution but were not blood-fed.
The controlling efficacy in vitro was measured using the Klun & Debboun (K&D) assay test module [Klun J A, Kramer M, Debboun M. A new in vitro bioassay system for discovery of novel human-use mosquito controlling compounds. J Am Mosq Control Assoc. 2005; 21:64-70], which is an adaptation of the K&D module [Klun J A, Debboun M. A new module for quantitative evaluation of controlling efficacy using human subjects. J Med Entomol. 2000; 37:177-81.], initially developed and used for quantitative measurement of the efficacy of mosquito controlling compounds on human subjects.
In the in vitro assay the module is coupled with a membrane-blood reservoir, consisting of a unit with six wells that are filled with 7 mL defibrinated pig blood maintained at a constant temperature of 38° C. and covered with a bovine collagen film (Devro plc, Edicol-MX400 CLR 100M REEL) as the membrane. Over the membrane a piece of cotton cloth (Baptist Roh, 100% cotton, weight: 69.0 g/m^2, thread density: warp and woof 26.5×26.5 thread/cm, Modessa Basel) was placed after being treated with 80 μL of the tested stimuli.
The K&D unit, containing five mosquitoes in each cell was finally placed on top of the treated cloth. Then the numbers of mosquitoes biting in each cell within a 3-min exposure were recorded. This procedure was repeated until 6 replicate exposures and observations (i.e. 30 mosquitoes) were made.

Aedes aegypti [2] = assay: In vivo arm in cage test on forearm of human volunteers; conditions: for % of repellency MEAN: 20% in ethanol on forearm, three volunteers
Procedure: The Arm in the box method was adapted from the WHO Guidelines for efficacy testing of mosquito repellents for human skin (WHO/CDS/NTD/WHOPES/2009.4). The readiness of 100 hungry female mosquitoes A. aegypti to probe is assessed by inserting an untreated arm into the cage (40×40×40 cm) for 30 seconds (negative control) three times (once at the beginning, once at the fourth hour and once at the eighth hour), to determine probing activity.
Then, the product is applied onto the skin of the forearm of a human volunteer (1 ml per 600 cm^2) and after 5 minutes, this arm is inserted into the cage and exposed for 3 minutes. The assay take place in temperature (27±2° C.) and humidity (80±10% RH) regulated room on three different volunteers.

Aedes aegypti [3] = assay: In vitro Warm Body assay, mosquitoes landing on treated warm body; format: in vivo; conditions: for % of mosquitoes' repellency: normalised to landing with 100% ethanol
Outline: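 Adapted Warm Body assay with host-seeking, non-blood-fed, sugar-fed A. aegypti Rockefeller females aged 5–10 days (10–12 days in one set); cages held 30 (or 25) females at 150 lux. Landings were counted automatically. Doses in ethanol were 0.0016%, 0.04% and 1% in triplicate, or a single replicate across 0.0016–1%.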

[4] = Aedes aegypti, read-out: decrease of landings

Structure (SMILES): Cc1ccc2c(c1)CC(C)(CO)C2 (stereo not shown) [ingredient #2, (2,5-dimethyl-2,3-dihydro-1H-inden-2yl)methanol]
- % repulsion (Aedes aegypti [1]; 0.0008% in ethanol): 21.5%
- % repulsion (Aedes aegypti [1]; 0.004% in ethanol): 25.3%
- % repulsion (Aedes aegypti [1]; 0.02% in ethanol): 33.8%
- % repulsion (Aedes aegypti [1]; 0.1% in ethanol): 57.1%
- % repulsion (Aedes aegypti [1]; 0.5% in ethanol): 84.6%
- % repulsion (Aedes aegypti [1]; 2.5% in ethanol): 92.3%
- concentration from which a significant repellent effect is shown (Aedes aegypti [1]; on its own, in ethanol): ≥ 0.1%
- % of repellency MEAN (Aedes aegypti [2]; 1 h post application): 98.83%
- % of repellency MEAN (Aedes aegypti [2]; 2 h post application): 97.79%
- % of repellency MEAN (Aedes aegypti [2]; 3 h post application): 96.72%
- % of repellency MEAN (Aedes aegypti [2]; 4 h post application): 94.71%
- % of repellency MEAN (Aedes aegypti [2]; 5 h post application): 94.05%
- % of repellency MEAN (Aedes aegypti [2]; 6 h post application): 91.99%
- % of repellency MEAN (Aedes aegypti [2]; 7 h post application): 90.91%
- % of repellency MEAN (Aedes aegypti [2]; 8 h post application): 84.67%
- reduction of the number of mosquitoes landing on the volunteers' arm (Aedes aegypti [2]; 20% in ethanol, for up to 7 h): more than 90%
- % of mosquitoes' repellency (Aedes aegypti [3]; 0.00032% concentration): 18%
- % of mosquitoes' repellency (Aedes aegypti [3]; 0.00071% concentration): 46%
- % of mosquitoes' repellency (Aedes aegypti [3]; 0.0016% concentration): 14%
- number of mosquitoes landed on the Warm Body (Aedes aegypti [3]; 0.0016% in ethanol (Table 7, one replicate)): 68
- % of mosquitoes' repellency (Aedes aegypti [3]; 0.0036% concentration): 46%
- % of mosquitoes' repellency (Aedes aegypti [3]; 0.0053% concentration): 0%
- % of mosquitoes' repellency (Aedes aegypti [3]; 0.0080% concentration): 26%
- number of mosquitoes landed on the Warm Body (Aedes aegypti [3]; 0.008% in ethanol (Table 7, one replicate)): 61
- % of mosquitoes' repellency (Aedes aegypti [3]; 0.018% concentration): 26%
- % of mosquitoes' repellency (Aedes aegypti [3]; 0.040% concentration): 61%
- number of mosquitoes landed on the Warm Body (Aedes aegypti [3]; 0.04% in ethanol (Table 7, one replicate)): 22
- % of mosquitoes' repellency (Aedes aegypti [3]; 0.089% concentration): 60%
- % of mosquitoes' repellency (Aedes aegypti [3]; 0.20% concentration): 80%
- number of mosquitoes landed on the Warm Body (Aedes aegypti [3]; 0.2% in ethanol (Table 7, one replicate)): 9
- number of mosquitoes landed on the Warm Body (Aedes aegypti [3]; 0.447% in ethanol (Table 7, one replicate)): 3
- % of mosquitoes' repellency (Aedes aegypti [3]; 0.45% concentration): 93%
- % of mosquitoes' repellency (Aedes aegypti [3]; 1% concentration): 91%
- number of mosquitoes landed on the Warm Body (Aedes aegypti [3]; 1% in ethanol (Table 7, one replicate)): 8
- pest or weed control at 0.0016 % (Aedes aegypti [3]; [4]): 4 to 29%
- pest or weed control at 0.04 % (Aedes aegypti [3]; [4]): ~70%
- repulsion (in words) (Aedes aegypti [3]; concentrations lower than 0.04%): only low repulsion
